Measured values published in patent US5189169A (priority 1991, dated 1993).

Key:
Conditions in all cases: 2.24 kg/ha, 2-3 weeks after treatment
[1] = system: four grassy weeds: wild oat, watergrass, green foxtail and crabgrass; test: Pre-emergence herbicidal activity, grassy weeds (Table III); format: in vivo
Description: (§1) The herbicidal effect was observed by comparing the extent of weed control in test flats treated with the compounds against that occurring in similar non-treated control flats. All were applied at 3.57 lb/A (4 kg/ha) to pre-emergence and post-emergence screening flats. An 80 gal/A (748.3 1/ha) spray volume was utilized. Post-emergence flats were seeded 12 days prior to treatment. Pre-emergence flats were seeded one day prior to treatment. Overhead watering of pre-emergence flats and soil surface watering of post-emergence flats, so as to avoid wetting the foliage, were carried out for the duration of the test.
(§2) Weed seeds were planted in a flat at a seed depth of 0.5 inch (1.3 cm). Soil for flats was prepared using loam soil fortified with 17-17-17 fertilizer (N-P2 O5 -K2 O on a weight basis) and Captan 80W fungicide. The test weeds were as follows:
(§3) The spray solutions were prepared by dissolving 240 mg of test compound in 20 ml of acetone containing 1% polyoxyethylene sorbitan monolaurate emulsifier, then adding 20 ml of water to the resulting solution. The spray solutions were applied using a linear spray table. Pre-emergence flats are raised to the level of the post-emergence foliage canopy by setting the flats on a wooden block.
(§4) The degree of weed control was visually assessed and recorded as percentage control compared to the growth of the same species in an untreated check flat of the same age. The rating scale ranges from 0 to 100%, where 0 equals no effect with plant growth equal to the untreated control, and 100 equals complete kill.
(§5) Compounds 68 to 145 in Table I were tested generally similarly to Compounds No. 1 to 67 with the following differences: The rate of application was 2 lb/acre (2.24 kg/ha), no 6-day evaluations were made, and the weeds were:
(§6) Four grassy weeds: wild oat, watergrass, green foxtail and crabgrass (Digitaria sanguinalis);
(§7) Ratings were taken 2-3 weeks after treatment.

[2] = system: three broadleaf weeds: wild mustard, redroot pigweed and curly dock; test: Post-emergence herbicidal activity, broadleaf weeds (Table III); format: in vivo, Brassica kaber, Amaranthus retroflexus, Rumex crispus
Description: as §1, §2, §3, §4, §5
(§8) Three broadleaf weeds: wild mustard, redroot pigweed (Amaranthus retroflexus) and curly dock (Rumex crispus).
as §7

[3] = system: three broadleaf weeds: wild mustard, redroot pigweed and curly dock; test: Pre-emergence herbicidal activity, broadleaf weeds (Table III); format: in vivo, Brassica kaber, Amaranthus retroflexus, Rumex crispus
Description: as §1, §2, §3, §4, §5, §8, §7

[4] = system: four grassy weeds: wild oat, watergrass, green foxtail and crabgrass; test: Post-emergence herbicidal activity, grassy weeds (Table III); format: in vivo
Description: as §1, §2, §3, §4, §5, §6, §7

SMILES	% Control, Pre-Emergence, GR Avg. [1] [%]	% Control, Post-Emergence, BL Avg. [2] [%]	% Control, Pre-Emergence, BL Avg. [3] [%]	% Control, Post-Emergence, GR Avg. [4] [%]
CCCCSP(=O)(N(CCC)CCC)N(CCCC)CCCC (stereo not drawn) [Compound 126]	0	86	0	61
CCCN(CCC)P(=O)(SCC)N(C)c1ccccc1 (stereo not drawn) [Compound 119]	0	67	0	30
CCCN(CCC)P(=O)(SC(C)CC)N(CCC)CCC (stereo not drawn) [Compound 80]	25	100	53	80
CCCCN(CC)P(=O)(SC(C)C)N(CCC)CCC (stereo not drawn) [Compound 91]	0	99	3	84
CCCCN(CCCC)P(=O)(SC(C)CC)N(C)C (stereo not drawn) [Compound 111]	10	99	10	72
CCCSP(=O)(N(CCC)CCC)N(CCC)CCC [Compound 71]	27	99	57	64
CCCCN(CCCC)P(=O)(SC(C)C)N(CC)CC (stereo not drawn) [Compound 87]	5	99	12	62
C=CCN(CC=C)P(=O)(SCCCC)N(CCC)CCC (stereo not drawn) [Compound 77]	0	99	0	53
CCCCCCSP(=O)(N(CC)CCCC)N(CCC)CCC (stereo not drawn) [Compound 135]	0	96	10	54
CCCCN(CCCC)P(=O)(SC(C)C)N(CCC)CCC (stereo not drawn) [Compound 125]	0	70	0	59
CCCCCSP(=O)(N(CCC)CCC)N(CCCC)CCCC (stereo not drawn) [Compound 130]	0	97	16	59
CCCN(CCC)P(=O)(SC(C)(C)CC)N(CCC)CCC [Compound 81]	0	83	0	66
C=CCN(CC=C)P(=O)(SCC)N(CCC)CCC (stereo not drawn) [Compound 75]	0	98	0	62
CCCCCSP(=O)(N(CCC)CCC)N(CCC)CCC [Compound 131]	0	93	23	58
C=CCN(CC=C)P(=O)(SCCC)N(CCC)CCC (stereo not drawn) [Compound 76]	0	99	0	61
CCCCCCSP(=O)(N(CCC)CCC)N(CCC)CCC [Compound 116]	0	96	10	53
CCCCSP(=O)(N(CC)CC)N(CC)CC [Compound 69]	13	87	0	30
CCCN(CCC)P(=O)(SC(C)C)N1CC(CC)CCC1C (stereo not drawn) [Compound 97]	0	86	20	67
